# Experiments:
# TaQ8GTC0 protein = assay: Glutathione conjugation activity of the TaQ8GTC0 protein to VLCFAE-inhibiting herbicides (HPLC); format: biochemical, wheat (Triticum aestivum)
# Procedure: All the VLCFAE-inhibiting herbicides used in this example were added to the reaction mixture as acetone solutions. Conjugation reactions to the VLCFAE-inhibiting herbicides were performed in a reaction mixture (total amount: 200 μl) containing 50 μl of 100 mM potassium phosphate buffer (pH 6.8), 10 μl of 1 mM VLCFAE-inhibiting herbicide, 20 μl of 10 mM reduced glutathione (pH 7.0), 6 μl of the TaQ8GTC0 protein (378 ng in total, PBS buffer solution) and 114 μl of PBS buffer, the reaction was conducted at 30° C. for 15 minutes, the reaction product was filtered through a […], and 50 μl of the filtered solution was injected into HPLC. HPLC analysis conditions were as described below.
# Apparatus: Agilent 1100 series
# Column: CAPCELL PAK C18 AQ 4.6 mm (i.d.)×250 mm (SHISEIDO)
# Mobile phase: acetonitrile/distilled water=5/95 (hold for 5 min)→(4 min)→40/60 (hold for 4 min)→(4 min)→90/10 (hold for 8 min)→(1 min)→5/95 (hold for 4 min) (each solvent containing 0.5% acetic acid)
# When the activity of glutathione conjugation to VLCFAE-inhibiting herbicides was analyzed, the amount of glutathione conjugates (GS conjugates) produced was determined based on the amount of VLCFAE-inhibiting herbicides decreased in the reaction solution.
# In Example 1, the conjugation activity to cafenstrole was determined via quantification of the compound released by the glutathione conjugation of this herbicide. In addition, peaks of GS conjugate of other herbicides (i.e., metolachlor, alachlor, flufenacet, mefenacet, phentolazamide, indanofan, anilofos, and piperophos) were unknown. When analyzing the glutathione conjugation activities to these herbicides, accordingly, glutathione conjugation reactions were performed to produce GS conjugate in the modified conditions (i.e., more amount of enzyme was added or the conjugation reaction was conducted for longer time) in the beginning to produce glutathione conjugates (GS conjugates), and the peaks were identified with LC/MS.
# wild-type rice = assay: Pyroxasulfone resistance test, wild-type rice, gellan gum medium, plant height; format: in vivo; settings: Oryza sativa, shoot growth, 4 to 5 days, Probit method, read-out: I50
# Procedure: Hoagland's mix and 3 g of gellan gum were suspended in 1 liter of distilled water and thoroughly dissolved therein by heating in a microwave. A fraction of the resultant (15 ml) was injected into a tubular bottle before it was cooled (30 ml was injected into the plate). The herbicide was simultaneously added at the time of injection of the gellan gum medium into the tubular bottle or plate, followed by thorough mixing. Rice hulls were soaked in a 50-fold diluted sodium hypochlorite solution (antiformin) (Wako) for approximately 20 minutes and then thoroughly washed with water. Sterilized seeds were soaked in distilled water and allowed to stand at 27° C. for germination (for approximately 2 days). Germinating seeds were softly planted in the gellan gum medium (plate) containing 0.25 μM BS. […] Thereafter, rice seeds that were determined to have BS resistance with the use of root elongation as the indicator were transferred to gellan gum media containing pyroxasulfone (tubal bottles) at the final concentrations of 10^−8, 10^−7, 10^−6, and 10^−5M, respectively. […] These samples were grown at 27° C. under fluorescent light illumination (14 hours of a light period and 10 hours of a dark period) for 4 to 5 days, and the plant heights were then measured. […]
smiles,measurement,setting,value
"Cn1nc(C(F)(F)F)c(CS(=O)(=O)C2=NOC(C)(C)C2)c1OC(F)F [Pyroxasulfone, 3-[5-(difluoromethoxy)-1-methyl-3-(trifluoromethyl)pyrazol-4-ylmethylsulfonyl]-4,5-dihydro-5,5-dimethyl-1,2-oxazole]",Enzyme activity (glutathione conjugation),"TaQ8GTC0 protein; 378 ng TaQ8GTC0 protein, 10 μl of 1 mM herbicide in 200 μl, 30° C., 15 minutes, mean ± standard deviation",11.7 ± 3.7 μmol/mg protein/15 min
same,GS conjugate of pyroxasulfone (M-15) produced,TaQ8GTC0 protein; out of 10 nmol pyroxasulfone added to the reaction mixture,4.81 nmol
same,IC50,wild-type rice,39 nM

# — patent US11198710B2, “Transgenic plant having herbicide resistance” (priority 2016, dated 2021)
